Like-named read-outs stand apart in the source and are kept apart here.
How the values were obtained:
[1] = system: cyclin D1; experiment: Cyclin D1 percentage degradation in Calu-1 cells (immunoblotting); assay type: cell-based; conditions: 16 hours
Method in brief: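 Cyclin D1 degradation was assessed by western blot. Clarified lysates, obtained by RIPA lysis with inhibitors and centrifugation at 13,000 rpm, were normalized by BCA protein assay and separated by SDS-PAGE. Bands were detected with Western ECL Substrate on a Bio-Rad ChemiDoc MP Imaging system and quantified in Image Lab software to derive percentage degradation.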

[2] = target: T1, CDK4 (Homo sapiens, UniProt P11802); experiment: CDK4 percentage degradation in Calu-1 cells (immunoblotting); assay type: cell-based; conditions: for inhibition at 0.2 µM: read-out: CDK4 Degradation (200 nM)
T1 construct: endogenous in cells; host or cells: Calu-1
Method in brief: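 CDK4 degradation was measured by immunoblotting. Cells were washed in cold PBS and lysed in RIPA buffer with inhibitors for 30 min at 4° C., then spun at 13,000 rpm to clear. After BCA protein determination, lysates were heated at 99° C. for 5 min in Laemmli buffer, resolved on SDS-PAGE, imaged on a ChemiDoc MP with ECL substrate, and band intensities quantified.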

T1 sequence (P11802 2-303 limits assumed): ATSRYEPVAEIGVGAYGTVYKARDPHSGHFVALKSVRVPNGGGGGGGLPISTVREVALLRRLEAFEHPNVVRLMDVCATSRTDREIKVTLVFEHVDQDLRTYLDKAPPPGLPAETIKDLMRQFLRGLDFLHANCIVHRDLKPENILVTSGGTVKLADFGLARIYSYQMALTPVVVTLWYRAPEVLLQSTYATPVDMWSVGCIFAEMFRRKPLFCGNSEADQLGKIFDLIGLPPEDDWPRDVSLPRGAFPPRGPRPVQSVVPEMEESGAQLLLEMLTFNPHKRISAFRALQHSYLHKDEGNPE
T1 sequence (P24385 whole entry partner): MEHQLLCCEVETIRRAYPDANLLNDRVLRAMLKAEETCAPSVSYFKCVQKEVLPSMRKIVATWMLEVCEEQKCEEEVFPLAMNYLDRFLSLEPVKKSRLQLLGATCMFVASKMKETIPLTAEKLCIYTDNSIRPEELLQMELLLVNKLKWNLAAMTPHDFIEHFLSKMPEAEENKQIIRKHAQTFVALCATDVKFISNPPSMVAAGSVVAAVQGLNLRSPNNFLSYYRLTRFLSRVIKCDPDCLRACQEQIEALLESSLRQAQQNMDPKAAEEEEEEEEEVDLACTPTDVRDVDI
T1 sequence (Q16531 2-1140 limits assumed, further chain): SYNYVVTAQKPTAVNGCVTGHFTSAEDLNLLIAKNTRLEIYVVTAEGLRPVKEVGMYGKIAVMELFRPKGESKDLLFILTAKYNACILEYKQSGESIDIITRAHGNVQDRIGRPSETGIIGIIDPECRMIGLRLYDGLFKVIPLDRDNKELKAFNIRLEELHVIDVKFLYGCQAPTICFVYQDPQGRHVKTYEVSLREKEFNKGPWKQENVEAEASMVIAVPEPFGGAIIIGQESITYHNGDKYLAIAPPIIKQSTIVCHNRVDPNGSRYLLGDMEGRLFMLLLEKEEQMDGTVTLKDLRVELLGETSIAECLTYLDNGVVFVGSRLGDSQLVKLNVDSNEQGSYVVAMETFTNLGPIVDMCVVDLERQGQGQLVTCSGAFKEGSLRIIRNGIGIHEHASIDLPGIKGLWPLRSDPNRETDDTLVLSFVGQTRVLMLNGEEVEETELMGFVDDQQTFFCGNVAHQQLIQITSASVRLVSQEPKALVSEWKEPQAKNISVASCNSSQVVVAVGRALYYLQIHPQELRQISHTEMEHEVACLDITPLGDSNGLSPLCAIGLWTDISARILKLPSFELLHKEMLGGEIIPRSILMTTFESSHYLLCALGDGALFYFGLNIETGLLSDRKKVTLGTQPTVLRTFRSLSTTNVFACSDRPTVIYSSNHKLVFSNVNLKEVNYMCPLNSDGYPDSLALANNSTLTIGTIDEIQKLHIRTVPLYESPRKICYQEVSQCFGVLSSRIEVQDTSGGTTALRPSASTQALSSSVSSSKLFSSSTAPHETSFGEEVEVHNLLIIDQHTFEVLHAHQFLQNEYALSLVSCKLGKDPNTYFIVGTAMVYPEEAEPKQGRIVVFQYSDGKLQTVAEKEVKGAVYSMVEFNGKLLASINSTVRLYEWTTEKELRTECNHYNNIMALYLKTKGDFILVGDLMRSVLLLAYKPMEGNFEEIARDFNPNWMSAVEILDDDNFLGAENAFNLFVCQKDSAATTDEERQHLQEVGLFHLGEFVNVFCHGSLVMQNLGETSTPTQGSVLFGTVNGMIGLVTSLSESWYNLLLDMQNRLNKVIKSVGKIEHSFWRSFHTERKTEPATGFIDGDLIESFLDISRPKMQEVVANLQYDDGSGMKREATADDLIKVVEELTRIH

Compound | inhibition at 0.2 µM ([2]; Calu-1 cells, 200 nM, 16 hours) [%] | inhibition at 10 µM ([2]; Calu-1 cells, 10 μM, 16 hours, read-out: CDK4 Degradation (10 μM)) [%] | CyclinD1 Degradation (200 nM) [1] | inhibition at 0.2 µM ([2]; Calu-1, 16 h) [%] | CyclinD1 Degradation (10 μM) ([1]; 10 μM)
CC(=O)c1c(C)c2cnc(Nc3ccc(N4CCN(CC(=O)NCCOCCOCCOCCOCCOCCC(=O)Nc5ccccc5C(=O)Nc5nc(C)c(C)s5)CC4)cn3)nc2n(C2CCCC2)c1=O [CPD-175, 2-(1-(4-(6-((6-Acetyl-8-cyclopentyl-5-methyl-7-oxo-7,8-dihydropyrido[2,3-d]pyrimidin-2-yl)amino)pyridin-3-yl)piperazin-1-yl)-2-oxo-6,9,12,15,18-pentaoxa-3-azahenicosan-21-amido)-N-(4,5-dimethylthiazol-2-yl)benzamide] |  |  | A (protein percentage degradation >=80%) | > 80 | 
CC(=O)c1c(C)c2cnc(Nc3ccc(N4CCN(C(=O)CCCC(=O)Nc5ccccc5C(=O)Nc5nc(C)c(C)s5)CC4)cn3)nc2n(C2CCCC2)c1=O [CPD-159, 2-(5-(4-(6-((6-Acetyl-8-cyclopentyl-5-methyl-7-oxo-7,8-dihydropyrido[2,3-d]pyrimidin-2-yl)amino)pyridin-3-yl)piperazin-1-yl)-5-oxopentanamido)-N-(4,5-dimethylthiazol-2-yl)benzamide] |  |  | D (protein percentage degradation <30%) | 30 to 50 | 
CC(=O)c1c(C)c2cnc(Nc3ccc(N4CCN(CC(=O)NCCOCCOCCC(=O)Nc5ccccc5C(=O)Nc5ccccn5)CC4)cn3)nc2n(C2CCCC2)c1=O [CPD-053, 2-(3-(2-(2-(2-(4-(6-((6-Acetyl-8-cyclopentyl-5-methyl-7-oxo-7,8-dihydropyrido[2,3-d]pyrimidin-2-yl)amino)pyridin-3-yl)piperazin-1-yl)acetamido)ethoxy)ethoxy)propanamido)-N-(pyridin-2-yl)benzamide] | 50 to 80 |  | B (protein percentage degradation <80%, and >=50%) |  | 
CC(=O)c1c(C)c2cnc(Nc3ccc(N4CCN(CC(=O)NCCCCCNC(=O)c5ccc(C(=O)Nc6ncc(C)s6)c(C)c5)CC4)cn3)nc2n(C2CCCC2)c1=O [CPD-009, N^4-(5-(2-(4-(6-((6-Acetyl-8-cyclopentyl-5-methyl-7-oxo-7,8-dihydropyrido[2,3-d]pyrimidin-2-yl)amino)pyridin-3-yl)piperazin-1-yl)acetamido)pentyl)-2-methyl-N^1-(5-methylthiazol-2-yl)terephthalamide] | < 30 |  | D (protein percentage degradation <30%) |  | 

The next lines start with results.

inhibition at 0.2 µM ([2]; Calu-1 cells, 200 nM, 16 hours) [%] | inhibition at 10 µM ([2]; Calu-1 cells, 10 μM, 16 hours, read-out: CDK4 Degradation (10 μM)) [%] | Compound | CyclinD1 Degradation (200 nM) [1] | inhibition at 0.2 µM ([2]; Calu-1, 16 h) [%] | CyclinD1 Degradation (10 μM) ([1]; 10 μM)
< 30 |  | CC(=O)c1c(C)c2cnc(Nc3ccc(N4CCN(CC(=O)NCC(=O)Nc5ccccc5C(=O)Nc5nc(C)c(C)s5)CC4)cn3)nc2n(C2CCCC2)c1=O [CPD-180, 2-(2-(2-(4-(6-((6-Acetyl-8-cyclopentyl-5-methyl-7-oxo-7,8-dihydropyrido[2,3-d]pyrimidin-2-yl)amino)pyridin-3-yl)piperazin-1-yl)acetamido)acetamido)-N-(4,5-dimethylthiazol-2-yl)benzamide] | D (protein percentage degradation <30%) |  | 
50 to 80 |  | CC(=O)c1c(C)c2cnc(Nc3ccc(N4CCN(CC(=O)NCCOCCOCCC(=O)Nc5ccccc5C(=O)Nc5cnc(C)nc5)CC4)cn3)nc2n(C2CCCC2)c1=O [CPD-186, 2-(3-(2-(2-(2-(4-(6-((6-Acetyl-8-cyclopentyl-5-methyl-7-oxo-7,8-dihydropyrido[2,3-d]pyrimidin-2-yl)amino)pyridin-3-yl)piperazin-1-yl)acetamido)ethoxy)ethoxy)propanamido)-N-(2-methylpyrimidin-5-yl)benzamide] | B (protein percentage degradation <80%, and >=50%) |  | 
 | < 30 | Cc1nc(NC(=O)c2ccccc2NC(=O)CCOCCNC(=O)CN2CCN(Cc3ccc(Nc4ncc(F)c(-c5cc(F)c6nc(C)n(C(C)C)c6c5)n4)nc3)CC2)sc1C [CPD-280, N-(4,5-Dimethylthiazol-2-yl)-2-(3-(2-(2-(4-((6-((5-fluoro-4-(4-fluoro-1-isopropyl-2-methyl-1H-benzo[d]imidazol-6-yl)pyrimidin-2-yl)amino)pyridin-3-yl)methyl)piperazin-1-yl)acetamido)ethoxy)propanamido)benzamide] |  |  | D (protein percentage degradation < 30%)
